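Values below derive from 48-hour exposures of cells grown in 96-well plates, with endpoints linearly interpolated between the two concentrations bracketing the appropriate inhibition level. At the TGI there is no net growth.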
Columns and labels:
Assay in all cases: inhibition of tumour cell growth, NCI panel, 48 h
[1] = system: TK-10 renal
[2] = system: NCI-H226 lung
[3] = system: COLO 205 colon
[4] = system: SK-OV-3 ovarian
[5] = system: SNB-75 CNS
[6] = system: SNB-19 CNS
[7] = system: M14 melanoma
[8] = system: CCRF-CEM leukemia
[9] = system: OVCAR-8 ovarian
[10] = system: OVCAR-3 ovarian
[11] = system: BT-549 breast
[12] = system: UACC-257 melanoma
[13] = system: SW-620 colon
[14] = system: A549 NSCLC
[15] = system: DU-145 prostate
[16] = system: SR leukemia
[17] = system: LOX IMVI melanoma
[18] = system: RPMI-8226 leukemia
[19] = system: SF-295 CNS
[20] = system: PC-3 prostate
[21] = system: MOLT-4 leukemia
[22] = system: SK-MEL-2 melanoma
[23] = system: 786-0 renal
[24] = system: MDA-MB-231 breast
[25] = system: HOP-62 NSCLC
[26] = system: HS 578T breast
[27] = system: HT29 colon
[28] = system: KM12 colon
[29] = system: NCI/ADR-RES ovarian
[30] = system: SN12C renal
[31] = system: ACHN renal
[32] = system: HCT-15 colon
[33] = system: K-562 leukemia
[34] = system: A498 renal
[35] = system: HCC-2998 colon
[36] = system: OVCAR-4 ovarian
[37] = system: EKVX NSCLC
[38] = system: HOP-92 NSCLC
[39] = system: NCI-H522 lung
[40] = system: UO-31 renal
[41] = system: CAKI-1 renal
[42] = system: UACC-62 melanoma
[43] = system: NCI-H23 lung
[44] = system: U251 CNS
[45] = system: SK-MEL-5 melanoma
[46] = system: IGROV1 ovarian
[47] = system: SK-MEL-28 melanoma
[48] = system: MALME-3M melanoma
[49] = system: SF-539 CNS
[50] = system: MCF7 breast
[51] = system: MDA-MB-435
[52] = system: SF-268 CNS
[53] = system: RXF 393 renal
[54] = system: MDA-N
[55] = system: OVCAR-5 ovarian
[56] = system: HL-60(TB) leukemia
[57] = system: HCT-116 colon
[58] = system: T-47D breast
[59] = system: NCI-H460 lung

With `Nc1ccc(-c2nc3ccc(F)cc3s2)cc1Cl` the TGI [1] was greater than 100 µM, the TGI [2] was greater than 100 µM and the TGI [3] was greater than 100 µM. For the same compound, the TGI [4] was greater than 100 µM, the TGI [5] was greater than 59.9 µM and the TGI [6] was greater than 100 µM. The TGI [7] was greater than 100 µM, the TGI [8] was greater than 100 µM and the TGI [9] was greater than 100 µM. It also gave a TGI [10] greater than 100 µM, a TGI [11] greater than 100 µM and a TGI [12] greater than 100 µM. The TGI [13] was greater than 100 µM, the TGI [14] was greater than 100 µM and the TGI [15] was greater than 100 µM. It also gave a TGI [16] greater than 100 µM, a TGI [17] greater than 100 µM and a TGI [18] greater than 100 µM. It also gave a TGI [19] greater than 89.2 µM, a TGI [20] greater than 100 µM and a TGI [21] greater than 100 µM. It also gave a TGI [22] greater than 100 µM, a TGI [23] greater than 100 µM and a TGI [24] of 99.5 µM. For the same compound, the TGI [25] was greater than 100 µM, the TGI [26] was greater than 100 µM and the TGI [27] was greater than 100 µM. The TGI [28] was greater than 100 µM, the TGI [29] was greater than 100 µM and the TGI [30] was greater than 100 µM. It also gave a TGI [31] greater than 100 µM, a TGI [32] greater than 100 µM and a TGI [33] greater than 100 µM. It also gave a TGI [34] greater than 100 µM, a TGI [35] greater than 100 µM and a TGI [36] greater than 100 µM. For the same compound, the TGI [37] was greater than 100 µM, the TGI [38] was greater than 100 µM and the TGI [39] was greater than 100 µM. For the same compound, the TGI [40] was greater than 100 µM, the TGI [41] was greater than 100 µM and the TGI [42] was greater than 100 µM. It also gave a TGI [43] greater than 100 µM, a TGI [44] greater than 100 µM and a TGI [45] greater than 100 µM. For the same compound, the TGI [46] was greater than 100 µM, the TGI [47] was greater than 100 µM and the TGI [48] was greater than 100 µM. It also gave a TGI [49] greater than 100 µM, a TGI [50] greater than 100 µM and a TGI [51] greater than 100 µM. It also gave a TGI [52] greater than 100 µM, a TGI [53] greater than 73.8 µM and a TGI [54] greater than 100 µM. It also gave a TGI [55] greater than 100 µM.

`COc1cc(C(=O)Oc2c(C(C)=O)sc3c2c(=O)n(-c2ccccc2)c(=S)n3-c2ccccc2)cc(OC)c1OC` was tested, and the TGI [1] was greater than 100 µM, the TGI [2] was 25.9 µM and the TGI [3] was 30.6 µM. It also gave a TGI [4] greater than 100 µM, a TGI [5] of 50.1 µM and a TGI [6] of 68 µM. For the same compound, the TGI [7] was 32.9 µM, the TGI [8] was 45.8 µM and the TGI [9] was 53.7 µM. It also gave a TGI [10] of 62.2 µM, a TGI [12] of 68.3 µM and a TGI [13] of 68.4 µM. For the same compound, the TGI [14] was 78.3 µM, the TGI [15] was 50.6 µM and the TGI [16] was greater than 100 µM. It also gave a TGI [17] of 40.1 µM, a TGI [18] of 59.9 µM and a TGI [56] of 49.7 µM. It also gave a TGI [19] of 40.6 µM, a TGI [20] of 48.8 µM and a TGI [21] of 50.5 µM. It also gave a TGI [23] of 55.2 µM, a TGI [24] of 88.8 µM and a TGI [25] of 67.1 µM. It also gave a TGI [26] of 74.4 µM, a TGI [27] of 32.8 µM and a TGI [57] of 36.2 µM. The TGI [28] was 50.8 µM, the TGI [29] was 43.5 µM and the TGI [58] was 99.6 µM. It also gave a TGI [30] of 27.4 µM, a TGI [31] of 66 µM and a TGI [32] of 44.1 µM. It also gave a TGI [33] greater than 100 µM, a TGI [34] of 28.3 µM and a TGI [35] of 55.6 µM. For the same compound, the TGI [36] was 64.2 µM, the TGI [37] was 40.8 µM and the TGI [38] was 55.8 µM. It also gave a TGI [39] of 4.53 µM, a TGI [41] of 76.5 µM and a TGI [42] of 47.6 µM. The TGI [43] was 39.9 µM, the TGI [59] was 29.8 µM and the TGI [44] was 77.8 µM. The TGI [45] was 32.1 µM, the TGI [46] was 43.5 µM and the TGI [47] was 49.5 µM. For the same compound, the TGI [48] was 27.8 µM, the TGI [49] was 32.5 µM and the TGI [50] was 44.8 µM. For the same compound, the TGI [51] was 54.8 µM, the TGI [52] was 77.4 µM and the TGI [53] was 41.6 µM. It also gave a TGI [54] of 57 µM and a TGI [55] of 43.2 µM.

Source: PubChem BioAssay (NCI)
